Data taken from PubChem BioAssay (NCI).
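Following 48 hours of exposure in 96-well plates, responses at five concentrations were used to interpolate endpoints linearly. Definition used: TGI = concentration required for complete inhibition of growth.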 Where a SMILES comes first, the peptide text is derived from it. The star is where a group is joined. Boc = CC(C)(C)OC(=O)*; Bn = c1ccc(C*)cc1

How the values were obtained:
Experiment in all cases: NCI tumour cell line growth inhibition, 48 h
UACC-257 melanoma = tested on: UACC-257 melanoma
786-0 renal = tested on: 786-0 renal
HCT-116 colon = tested on: HCT-116 colon
UO-31 renal = tested on: UO-31 renal
CCRF-CEM leukemia = tested on: CCRF-CEM leukemia
SF-268 CNS = tested on: SF-268 CNS
HOP-62 NSCLC = tested on: HOP-62 NSCLC
SK-MEL-28 melanoma = tested on: SK-MEL-28 melanoma
OVCAR-4 ovarian = tested on: OVCAR-4 ovarian
K-562 leukemia = tested on: K-562 leukemia
PC-3 prostate = tested on: PC-3 prostate
LOX IMVI melanoma = tested on: LOX IMVI melanoma
OVCAR-5 ovarian = tested on: OVCAR-5 ovarian

| Compound | TGI (UACC-257 melanoma) [µM] | TGI (786-0 renal) [µM] | TGI (HCT-116 colon) [µM] | TGI (UO-31 renal) [µM] | TGI (CCRF-CEM leukemia) [µM] | TGI (SF-268 CNS) [µM] | TGI (HOP-62 NSCLC) [µM] | TGI (SK-MEL-28 melanoma) [µM] | TGI (OVCAR-4 ovarian) [µM] | TGI (K-562 leukemia) [µM] | TGI (PC-3 prostate) [µM] | TGI (LOX IMVI melanoma) [µM] | TGI (OVCAR-5 ovarian) [µM] |
| --- | --- | --- | --- | --- | --- | --- | --- | --- | --- | --- | --- | --- | --- |
| O=C1COc2cc3c(cc2N1)SCCC(=O)N3 | > 100 | > 100 | > 100 | > 100 | > 100 | > 100 | > 100 | > 100 | > 100 | > 100 |  |  |  |
| COC(=O)/C(C#N)=C(/NCc1ccccc1)Nc1ccccc1 | > 100 | > 100 | > 100 | > 100 |  | > 100 | > 100 | > 100 | > 100 | > 100 | > 100 | > 100 | > 100 |
| COc1ccc(-c2cc(=O)c3ccc(F)cc3[nH]2)cc1 | > 100 | > 100 | > 100 | > 100 | > 100 | > 100 | > 100 | > 100 | > 100 | > 100 |  | > 100 | > 100 |
| CC(=O)OC1CC2C(C)(C)OC(=O)CC(OC(C)=O)[C@]2(C)C2CCC3(C)C(=CCC3c3ccoc3)[C@]12C (stereo not given in full) |  | > 100 | 58.6 | > 100 | 87.3 | > 100 | 96.6 | > 100 | > 100 | > 100 |  | > 100 | > 100 |
| CC(C)=CC[C@H]1C[C@@]2(CC=C(C)C)C(=O)/C(=C(/O)c3ccccc3)C(=O)[C@](CC=C(C)C)(C2=O)C1(C)C | 19.7 | 21.4 | 14.5 | 13.3 |  | 39.4 | 29.3 | 30.3 | 26.4 | 50.4 | 19.3 | 17 | 19.5 |
| CC[C@H]1C=CCC[C@@]2(C[C@@H]3CC[C@H]4[C@@H](C(=O)OCCCCCCCCCCCCCCCC(=O)N(CCCNC(C)=O)C[C@H](CCNC(C)=O)OC(C)=O)[C@@]5(CCC[C@@H](C)O5)NC(=[N+]34)N2)O1 | 2.68 | 3.4 | 2.92 | 3.16 |  | 3.38 | 3.42 | 2.63 | 3.16 | 2.41 | 2.26 | 3.16 | 2.96 |
| COC1=CC(=O)c2c(n[nH]c2CCNC(=O)OCc2ccccc2)C1=O | 28.3 | 31.3 | 24.9 | 28.8 |  |  | 37.2 | 24.5 |  | 44.9 | > 100 | 23.7 | 32.1 |
| Cn1nc(S(N)(=O)=O)s/c1=N/S(=O)(=O)c1ccc(N)cc1 |  | > 100 |  | > 100 |  | > 100 | > 100 | > 100 | > 100 |  | > 100 |  | > 100 |
| O=C(/C=N/O)Nc1ccc(Cl)c(I)c1 | > 100 | 88.4 | 25.5 | 33.1 | 94.8 | 69.2 | 70.7 | 72.6 | > 100 | > 100 |  | 31.4 | 62.2 |
| COC(=O)C(CC(C)C)NC(=O)CNC(=O)C(Cc1ccc(OCc2ccccc2)cc1)NC(=O)C(COCc1ccccc1)NC(=O)OC(C)(C)C (stereo not given) (Boc-S(Bn)Y(Bn)GL-OMe; configuration not given here) |  | > 100 | > 100 | > 100 |  | > 100 | > 100 | > 100 | > 100 | > 100 | > 100 | > 100 | > 100 |
| Cc1cc(C)nc(NS(=O)(=O)c2ccc(Nc3nnc(/C=C/c4c(O)ccc5ccccc45)c(=O)n3N)cc2)n1 |  | 62.9 | 42 | 86.3 | > 100 | > 100 | > 100 |  | 85.2 | > 100 |  |  | 75.4 |
| O=C(NN1C(=O)C(Cl)C1c1cccc(Cl)c1)c1ccccc1O (stereo not given) | > 100 | > 100 | > 100 | > 100 | > 100 | > 100 |  | > 100 | > 100 | > 100 |  | > 100 |  |
| O=[N+]([O-])c1cc(Cl)ccc1S(=O)(=O)c1ccc(Cl)cc1[N+](=O)[O-] | 26.7 | 28.9 | 29.2 | 30.9 | > 100 | 29.2 | 35.9 | 32 | 37.2 | > 100 |  | 32.5 | 34 |
| C/C(=C(/C)c1cc[n+](C)cc1)c1cc[n+](C)cc1 | > 75 | > 75 | > 75 | > 75 | > 75 | > 75 | > 75 | > 75 | > 75 | > 75 |  | > 75 | > 75 |
| O=c1[nH]cc(COCC(O)CO)c(=O)[nH]1 (stereo not given) | > 100 | > 100 | > 100 | > 100 | > 100 | > 100 | > 100 | > 100 | > 100 | > 100 |  | > 100 | > 100 |
